Test results from patent publication US20230250095A1, “BENZIMIDAZOLE DERIVATIVES, PREPARATION METHOD THEREFOR AND MEDICAL USE THEREOF” (TUOJIE BIOTECH(SHANGHAI) CO., LTD., priority 2020, published 2023).

What was measured:
hP2X2/3 = target: T1, hP2X2/3 (Homo sapiens, UniProt P56373+Q9UBL9); experiment: FLIPR calcium flux assay, antagonistic activity against hP2X2/3 receptor; assay type: cell-based; conditions: 1321N1/hP2X2/3 cells, agonist α,β-meATP 1000 nM
T1 construct: host or cells: 1321N1 cells
T1 sequence (Q9UBL9 1-471): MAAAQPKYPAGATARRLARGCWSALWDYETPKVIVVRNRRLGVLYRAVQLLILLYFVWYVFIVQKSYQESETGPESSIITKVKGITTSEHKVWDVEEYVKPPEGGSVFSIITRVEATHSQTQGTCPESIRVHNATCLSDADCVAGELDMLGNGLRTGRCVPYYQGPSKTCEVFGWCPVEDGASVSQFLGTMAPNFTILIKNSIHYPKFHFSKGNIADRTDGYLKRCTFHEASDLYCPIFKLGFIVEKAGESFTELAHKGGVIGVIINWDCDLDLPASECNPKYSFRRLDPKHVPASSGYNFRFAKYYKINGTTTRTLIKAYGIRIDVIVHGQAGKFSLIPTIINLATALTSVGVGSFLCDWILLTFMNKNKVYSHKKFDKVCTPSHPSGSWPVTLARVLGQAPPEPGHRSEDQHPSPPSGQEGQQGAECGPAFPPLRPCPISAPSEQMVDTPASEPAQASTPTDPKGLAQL
T1 sequence (P56373 1-397): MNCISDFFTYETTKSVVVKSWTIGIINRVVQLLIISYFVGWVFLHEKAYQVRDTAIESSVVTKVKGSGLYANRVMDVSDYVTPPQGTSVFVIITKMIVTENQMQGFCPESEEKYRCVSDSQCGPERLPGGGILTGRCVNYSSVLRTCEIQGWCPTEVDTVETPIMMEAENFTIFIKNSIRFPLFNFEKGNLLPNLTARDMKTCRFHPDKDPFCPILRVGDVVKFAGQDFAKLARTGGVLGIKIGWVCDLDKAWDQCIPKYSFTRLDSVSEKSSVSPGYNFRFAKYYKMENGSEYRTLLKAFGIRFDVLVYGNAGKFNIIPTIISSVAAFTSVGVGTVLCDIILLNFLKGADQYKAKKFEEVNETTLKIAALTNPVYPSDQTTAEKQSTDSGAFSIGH
Method: The compounds were screened for antagonistic activity against hP2X3 and hP2X2/3 receptors (changes in calcium flux signals represent the effect of the compounds on ion channels) by an FLIPR assay.
1321N1 cells (adherent cells) stably transfected with hP2X3 and hP2X2/3 receptors were digested, centrifuged, resuspended in a plating medium (DMEM+10% DFBS) and counted, adjusted to 2×10^5 cells/mL. The cells were seeded in a 384-well assay plate at 50 μL/well, and incubated in an incubator at 37° C. with 5% CO2 for 16-24 h. Test compounds (20 mM DMSO stock solution) that were 180 times the desired concentration were prepared with DMSO, and added to a 384-well compound plate at 500 nL/well. Then, each well was supplemented with 30 μL of FLIPR buffer (lx HBSS containing 1.26 mM Ca^2++2 mM CaCl2)+20 mM HEPES), and the mixture was shaken for 20-40 min to be mixed well. The agonist α,β-meATP (final concentration of 500 nM for hP2X3 cells and final concentration of 1000 nM for hP2X2/3 cells) that was 3 times the desired concentration was prepared with an FLIPR buffer, and added to another 384-well compound plate at 35 μL/well. The cell plate in which cells had been plated and cultured for 16-24 h was taken out, and the cell supernatant was removed by pipetting. 30 μL of dye (FLIPR® calcium 4 assay kit, diluted with an FLIPR buffer) was added to each well, and the plate was incubated for 1 h. 15 μL of the compound was added to each well containing cells (dosing using an FLIPR instrument), and after 15 min, 22.5 μL of agonist was added to each well and the fluorescent signal was detected (excitation wavelength: 470-495 nm, emission wavelength: 515-575 nm). With the difference between the peak and the trough of the signal taken as the basic data, the data of the highest concentration of the positive drug taken as the 100% inhibition rate, and the data of DMSO taken as the 0% inhibition rate, the inhibition effect curves of the compounds were fitted on the software Graphpad Prism 6 and IC50 values were calculated.

[1] = In vivo pharmacokinetic experiment in rats, intragastric administration; conditions: SD rats, 5 mg/kg
Method: The drug concentrations in the plasma of the test animals (rats) at different time points after intragastric administration of the compound of the present disclosure were determined by an LC/MS/MS method. The pharmacokinetic behavior in rats of the compound of the present disclosure was studied and its pharmacokinetic profile was evaluated.
Male, healthy SD rats of SPF grade, 6-8 weeks old, 3 rats in each group.
Intragastric administration: a certain amount of compound was weighed and prepared into a 1 mg/mL white suspension by adding 0.5% by volume of hydroxypropyl methylcellulose, 0.1% by volume of tween 80 and 99.4% by volume of water.
SD rats were administered intragastrically with compound 4 or BLU-5937 at a dose of 5 mg/kg after fasting overnight.
Rats were administered intragastrically with the compound of the present disclosure. 0.2 mL of blood was collected from the jugular vein at 0.25 h, 0.5 h, 1 h, 2 h, 4 h, 8 h and 24 h after the administration, placed in a tube containing EDTA-K2, separated by centrifugation at 4° C. at 4000 rpm for 5 min to obtain plasma, which was stored at −75° C.
Determination of the content of the test compounds at different concentrations in the plasma of rats after intragastric administration: 50 μL of rat plasma at each time point after the administration was taken, 200 μL of a solution of internal standard dexamethasone (50 ng/mL) in acetonitrile was added thereto, and the mixture was vortexed for 30 s to be mixed well, centrifuged at 4° C. at 4700 rpm for 15 min. The supernatant of the plasma sample was subjected to 3-fold dilution with water, and 2.0 μL of the dilution was taken for LC/MS/MS analysis.

Structure (SMILES) | IC50 (hP2X2/3) [µM] | also measured
CC(=O)N1CCOC(Cn2c(-c3c(F)cc(N4CCCC4=O)cc3F)nc3cc(C)ccc32)C1 (stereo in doubt) [Compound 1] | 5.57 | 
COC(=O)N1CCOC(Cn2c(-c3c(F)cc(N4CCCC4=O)cc3F)nc3cc(C)ccc32)C1 (centres unmarked) [Compound 2, Methyl 2-((2-(2,6-difluoro-4-(2-carbonylpyrrolidin-1-yl)phenyl)-5-methyl-1H-benzo[d]imidazol-1-yl)methyl)morpholine-4-carboxylate] | 19 | 
COC(=O)N1CCO[C@@H](Cc2c(-c3c(F)cc(N4CCCC4=O)cc3F)nc3cc(C)ccn23)C1 [Compound 9, Methyl (S)-2-((2-(2,6-difluoro-4-(2-carbonylpyrrolidin-1-yl)phenyl)-7-methylimidazo[1,2-a]pyridin-3-yl)methyl)morpholine-4-carboxylate] | 30.3 | 
CC(=O)N1CCO[C@@H](Cn2c(-c3c(F)cc(N4CCCC4=O)cc3F)nc3cc(Cl)ccc32)C1 [Compound 10, (S)-1-(4-(1-((4-acetylmorpholin-2-yl)methyl)-5-chloro-1H-benzo[d]imidazol-2-yl)-3,5-difluorophenyl)pyrrolidin-2-one] | 7.41 | 

Compounds with a lower IC50 (hP2X2/3), results first:

IC50 (hP2X2/3) [µM] | Structure (SMILES) | also measured
1.81 | CC(=O)N1CCO[C@@H](Cn2c(-c3ccc(N4CCCC4=O)cc3Cl)nc3cc(C)ccc32)C1 [Compound 3, (S)-1-(4-(1-((4-acetylmorpholin-2-yl)methyl)-5-methyl-1H-benzo[d]imidazol-2-yl)-3-chlorophenyl)pyrrolidin-2-one] | 
1.93 | CC(=O)N1CCO[C@@H](Cn2c(-c3c(F)cc(N4CCCC4=O)cc3Cl)nc3cc(C)ccc32)C1 [Compound 4, (S)-1-(4-(1-((4-acetylmorpholin-2-yl)methyl)-5-methyl-1H-benzo[d]imidazol-2-yl)-3-chloro-5-fluorophenyl)pyrrolidin-2-one] | V [1]: 2.05 L/kg; Tmax ([1]; male, rat, plasma, po): 25.2 min; half-life ([1]; male, rat, plasma, po): 57.6 min; AUC(0-t) ([1]; male, rat, po, plasma): 408 ng·h/mL; Cmax ([1]; male, rat, po, plasma): 356 ng/mL
